# Data: patent US20140135217A1, “Use of Tetracyanodithiines as Fungicides” (BASF SE, priority 2011, published 2014)
# Tests used:
# Rhizoctonia solani = assay type: cell-based
# Fusarium oxysporum = assay type: cell-based
# Botryis cinerea = assay type: cell-based; conditions: Botrci; vs compound-free control (100%); 405 nm, 7 days after inoculation; concentration not given
# Phytophthora infestans = assay type: cell-based; conditions: Phytin; pea juice-based or DDC medium; vs compound-free control (100%); 405 nm, 7 days after inoculation; concentration not given
# Alternaria solani = assay type: cell-based
# Corynespora cassiicola = assay type: cell-based
# Cercospora sojina = assay type: cell-based
# Pyriculana oryzae = assay type: cell-based; conditions: Pyrior; vs compound-free control (100%); 405 nm, 7 days after inoculation; concentration not given
# Septoria glycines = assay type: cell-based
# Colletotrichum truncatum = assay type: cell-based
# Fusarium poae = assay type: cell-based
# Septoria tritici = assay type: cell-based
# [1] = system: Colletotrichum lagenarium; assay type: cell-based
# Cochliobolus miyabeanus = test: Microtiter test, brown spot on rice (Cochmi); assay type: cell-based; conditions: vs compound-free control (100%), 405 nm, 7 days after inoculation, concentration not given
# Pyrenophora teres = assay type: cell-based
# Rhynchosporium secalis = assay type: cell-based
# Fusarium culmorum = assay type: cell-based
# Phakopsora pachyrhizi = test: Glasshouse trial: protective control of soy bean rust on soy beans; assay type: in vivo; conditions: soy bean seedlings sprayed with 1000 ppm, inoculated 1 day later, assessed after fourteen days; untreated plants 90% infected
# Experimental: The spray solutions were prepared in several steps: The stock solution were prepared: a mixture of acetone and/or dimethylsulfoxide and the wetting agent/emulsifier Wettol, which is based on ethoxylated alkylphenoles, in a relation (volume) solvent-emulsifier of 99 to 1 was added to 25 mg of the compound to give a total of 10 ml. Water was then added to total volume of 100 ml. This stock solution was diluted with the described solvent-emulsifier-water mixture to the given concentration. Leaves of pot-grown soy bean seedlings were sprayed to run-off with an aqueous suspension, containing the concentration of active ingredient or their mixture as described below. The plants were allowed to air-dry. […] Then the plants were inoculated with spores of Phakopsora pachyrhizi. […] The extent of fungal attack on the leaves was visually assessed as % diseased leaf area.
smiles,measurement,setting,value
"N#CC1=C(C#N)SC(C#N)=C(C#N)S1 [compound I.A, 2,3,5,6-tetracyano-[1,4]dithiine]",relative growth in % of the pathogen,Rhizoctonia solani,0%
same,relative growth in % of the pathogen,Fusarium oxysporum,0%
same,relative growth in % of the pathogen,Botryis cinerea,1%
same,relative growth in % of the pathogen,Phytophthora infestans,0%
same,relative growth in % of the pathogen,Alternaria solani,0%
same,relative growth in % of the pathogen,Corynespora cassiicola,1%
same,relative growth in % of the pathogen,Cercospora sojina,0%
same,relative growth in % of the pathogen,Pyriculana oryzae,0%
same,relative growth in % of the pathogen,Septoria glycines,0%
same,relative growth in % of the pathogen,Colletotrichum truncatum,0%
same,relative growth in % of the pathogen,Fusarium poae,0%
same,relative growth in % of the pathogen,Septoria tritici,0%
same,relative growth in % of the pathogen,[1],0%
same,relative growth in % of the pathogen,Cochliobolus miyabeanus,0%
same,relative growth in % of the pathogen,Pyrenophora teres,0%
same,relative growth in % of the pathogen,Rhynchosporium secalis,0%
same,relative growth in % of the pathogen,Fusarium culmorum,0%
same,infection (% diseased leaf area),Phakopsora pachyrhizi,4%
